According to patent US9649381B2, “Transporter protein-coupled nanodevices for targeted drug delivery” (Wayne State University, priority 2013, dated 2017):

Tests used:
C2Hx rats = test: EMG recording of diaphragm recovery in C2Hx rats after injection into the paralyzed hemidiaphragm; type: in vivo, rat
Description: In one case, rats with hemisection at C2Hx, hereafter “C2Hx rats,” have undergone surgical treatment to disrupt the bulbospinal pathway from the rVRG to the PN, the primary source for descending respiratory drive. Paralysis of the ipsilateral diaphragm muscle in C2Hx confirmed by electomygram (EMG). In such rats, the latent crossed phrenic pathway remains intact, as axons decussate caudal to injury.
In one example, a nanodevice with a targeting portion of WGA-HRP and a molecule to be delivered of pro-THP, the pro-THP being bound to the connecting portion by a slow drug release linker, was administered by injection into the paralyzed hemidiaphragms of a cohort of 11 C2-hemisected rats. About 50 μl of the nanodevice, which contained about 0.275 μg of pro-THP, was injected. Five 10 μl injections were conducted at even spatial intervals to spread the conjugate throughout the hemidiaphragm. This constitutes a single round of injections and thus considered to be a one-time, single-injection type of treatment.
FIG. 3 illustrates a trial of C2Hx rats that have been treated with a WGA-HRP/gold/pro-theophylline nanodevice. In each plot, the Y-axis 301a/b/c/d represents a voltage signal and the X-axis 302/a/b/c/d represents time, increasing from left to right. Two different types of plots are shown in FIG. 3; FIG. 3A-C are EMG recordings and FIG. 3D is a phrenic nerve recording. […]

[1] = system: rat spinal cord injury model animals; test: Chronic systemic drug administration, persistence of hemidiaphragm recovery in spinal cord injury model animals; type: in vivo; details: multiple systemic administrations over 3 days
Description: Chronic administrations of theophylline, however, induce plasticity in the respiratory pathways which results in recovery that persists for days. Specifically, three days of orally administered theophylline three times per day (for a total of nine doses) was sufficient to bring about and maintain respiratory recovery that persisted for about 3 days, about 7 days, about 12 days, and about 30 days after the last drug administration in separate groups of animals.
Theophylline is both an adenosine receptor antagonist and a phosphodiesterase (PDE) inhibitor. Chronic administration of rolipram (a PDE-4 specific inhibitor), pentoxifylline (a general PDE inhibitor), or DPCPX (an adenosine A1 receptor antagonist) also induce persistent functional recovery of a paralyzed hemidiaphragm in rat spinal cord injury model animals for as long as 10 days, the longest interval studied, after the animal is last exposed to the drugs. Although rolipram and pentoxifylline have been approved for clinical use, these “first generation” PDE inhibitors can induce the same side effects as theophylline, including nausea and vomiting.

[2] = system: patients with cervical spinal cord injury; details: cited from earlier work

Compound | dosage required for recovery in a rat (C2Hx rats; single administration, studies like FIG. 3A-D) | recovery after multiple systemic administrations [1] | amount of theophylline required to realize recovery (C2Hx rats; C2Hx rats, systemic treatment) | left diaphragm EMG activity ([2]; patient with asymmetrical cervical spinal cord injury, acute and chronic theophylline) | increase in diaphragm EMG activity, maximum ([2]; tetraplegic patient, ventilator dependent, intravenous, increasing doses over one day, therapeutic levels)
CCCn1c(=O)c2[nH]c(C3CCCC3)nc2n(CCC)c1=O [DPCPX, 1,3-dipropyl-8-cyclopentylxanthine] | 0.093 microgram |  |  |  | 
Cn1c(=O)c2[nH]cnc2n(C)c1=O [theophylline] |  | long-lasting recovery | 15 mg/kg | markedly increased | 50%
